Data taken from PubChem BioAssay (NCI).
Several values for one entry are separate records, joined by “and”; a condition that tells them apart may be missing. Equal values may be shown once.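 Protocol summary: plate cells (96-well), add compound at 5 concentrations, incubate 48 h, interpolate endpoints linearly. Here, GI50 denotes the concentration required for 50% inhibition of growth. The concentration for full growth arrest is given as TGI.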

Legend:
Experiment in all cases: inhibition of tumour cell growth, NCI panel, 48 h
DU-145 prostate = test system: DU-145 prostate
MALME-3M melanoma = test system: MALME-3M melanoma
MDA-MB-435 = test system: MDA-MB-435
OVCAR-4 ovarian = test system: OVCAR-4 ovarian
OVCAR-8 ovarian = test system: OVCAR-8 ovarian
SK-MEL-28 melanoma = test system: SK-MEL-28 melanoma
SK-OV-3 ovarian = test system: SK-OV-3 ovarian
SN12C renal = test system: SN12C renal
SR leukemia = test system: SR leukemia
UACC-62 melanoma = test system: UACC-62 melanoma

## O=C1/C(=C/c2ccccc2)SC(=Nc2ccccc2)N1Nc1ccccc1
DU-145 prostate
  GI50: 32.2 µM
  TGI: > 100 µM
MALME-3M melanoma
  GI50: 19.8 µM
  TGI: 66.8 µM
MDA-MB-435
  GI50: 15.1 µM
  TGI: 48 µM
OVCAR-4 ovarian
  GI50: 7.96 µM
  TGI: > 100 µM
OVCAR-8 ovarian
  GI50: 27.3 µM
  TGI: > 100 µM
SK-MEL-28 melanoma
  GI50: 16.2 µM
  TGI: 71 µM
SK-OV-3 ovarian
  GI50: 24.4 µM
  TGI: > 100 µM
SN12C renal
  GI50: 5.48 µM
  TGI: 23.4 µM
SR leukemia
  GI50: 21.3 µM
  TGI: > 100 µM
UACC-62 melanoma
  GI50: 10.3 µM
  TGI: 39.4 µM

## Nc1ccc(C#Cc2cncnc2Nc2ccc(OCc3cccc(F)c3)c(Cl)c2)cc1
DU-145 prostate
  GI50: > 18 µM
  TGI: > 25 µM
MALME-3M melanoma
  GI50: > 25 µM
  TGI: > 25 µM
MDA-MB-435
  GI50: > 17.6 µM
  TGI: > 25 µM
OVCAR-4 ovarian
  GI50: 12.3 µM
  TGI: > 25 µM
OVCAR-8 ovarian
  GI50: 11.9 µM
  TGI: > 25 µM
SK-MEL-28 melanoma
  GI50: > 19 µM
  TGI: > 25 µM
SK-OV-3 ovarian
  GI50: 8.88 µM
  TGI: > 25 µM
SN12C renal
  GI50: > 15.6 µM
  TGI: > 25 µM
SR leukemia
  GI50: > 18 µM
  TGI: > 25 µM
UACC-62 melanoma
  GI50: 19.4 µM
  TGI: > 25 µM

## C/C=C(\C)C(=O)O[C@@H]1C(O)[C@H]2OC(COC(=O)CCC(=O)CCCCCC[C@H](CCCCC)O[C@@H]3OC(C)[C@H](OC(C)=O)C(O)[C@H]3O2)[C@H]1OC(=O)/C=C/c1ccccc1 (stereo not given in full)
DU-145 prostate
  GI50: 0.0201 µM
  TGI: > 44.2 µM
MALME-3M melanoma
  GI50: 0.0558 µM
  TGI: 6.48 µM
MDA-MB-435
  GI50: < 0.01 µM
  TGI: 4.68 µM
OVCAR-4 ovarian
  GI50: 1.74 µM
  TGI: 42.5 µM
OVCAR-8 ovarian
  GI50: < 0.0341 µM
  TGI: > 51.4 µM
SK-MEL-28 melanoma
  GI50: 0.021 µM
  TGI: 9.59 µM
SK-OV-3 ovarian
  GI50: 0.0419 µM
  TGI: 13.3 µM
SN12C renal
  GI50: 0.0101 µM
  TGI: 24.1 µM
SR leukemia
  GI50: < 0.012 µM
  TGI: 3.18 µM
UACC-62 melanoma
  GI50: 0.0176 µM
  TGI: 1.01 µM

## COC(=O)[C@]12CC[C@@H](C)[C@H](C)[C@@H]1C1=CC[C@@H]3[C@@]4(C)C(C=O)=C[C@@](C)(COC(C)=O)[C@@H]4[C@H](O)C[C@@]3(C)[C@]1(C)CC2
DU-145 prostate
  GI50: 1.91 µM
  TGI: 3.93 µM
MALME-3M melanoma
  GI50: 1.76 µM
  TGI: 3.63 µM
MDA-MB-435
  GI50: 2.09 µM
  TGI: 5.04 µM
OVCAR-4 ovarian
  GI50: 2.64 µM
  TGI: 10.7 µM
OVCAR-8 ovarian
  GI50: 3.03 µM
  TGI: 10.4 µM
SK-MEL-28 melanoma
  GI50: 2.16 µM
  TGI: 4.92 µM
SK-OV-3 ovarian
  GI50: 4.35 µM
  TGI: 16.1 µM
SN12C renal
  GI50: 2.3 µM
  TGI: 6.08 µM
SR leukemia
  GI50: 1.84 µM
  TGI: 5.4 µM
UACC-62 melanoma
  GI50: 1.76 µM
  TGI: 4.1 µM

## CO[C@H]1[C@H](O)[C@H](O[C@H]2CC[C@@]3(C)[C@H](CC[C@@H]4[C@@H]3CC[C@]3(C)[C@@H](C5=CC(=O)OC5)CC[C@]43O)C2)O[C@@H](C)[C@@H]1O
DU-145 prostate
  TGI: < 0.0001 µM
MALME-3M melanoma
  TGI: 0.000721 µM
MDA-MB-435
  TGI: < 0.0001 µM
OVCAR-4 ovarian
  TGI: 0.000626 µM
OVCAR-8 ovarian
  TGI: 0.00572 µM and 0.0113 µM
SK-MEL-28 melanoma
  TGI: 0.00622 µM and < 0.0227 µM
SK-OV-3 ovarian
  TGI: 0.00245 µM and 0.0106 µM
SN12C renal
  TGI: 0.00112 µM and < 0.0107 µM
SR leukemia
  GI50: < 0.0001 µM
  TGI: 0.0273 µM
UACC-62 melanoma
  TGI: 0.00312 µM and < 0.0104 µM

## COC(=O)c1ccccc1NC(=O)C(=O)CC(=O)c1ccccc1NC1=CC(=O)C(=O)c2ccccc21
DU-145 prostate
  TGI: > 53.8 µM
MALME-3M melanoma
  TGI: 11.1 µM
MDA-MB-435
  TGI: 8.59 µM
OVCAR-4 ovarian
  TGI: 36.2 µM
OVCAR-8 ovarian
  TGI: 60.9 µM
SK-MEL-28 melanoma
  TGI: 29.4 µM
SK-OV-3 ovarian
  TGI: 96.1 µM
SN12C renal
  TGI: 15.1 µM
SR leukemia
  TGI: > 100 µM
UACC-62 melanoma
  TGI: 24.5 µM

## CC(CN)[C@@H]1CC[C@]2(CO)CC[C@]3(C)[C@H](CC[C@@H]4[C@@]5(C)CCC(NCCO)C(C)(C)[C@@H]5CC[C@]43C)[C@@H]12 (stereo not given in full)
DU-145 prostate
  GI50: 2.34 µM
  TGI: 5.32 µM
MALME-3M melanoma
  GI50: 1.62 µM
  TGI: 3.16 µM
MDA-MB-435
  GI50: 1.7 µM
  TGI: 3.14 µM
OVCAR-4 ovarian
  GI50: 2.7 µM
  TGI: 9.09 µM
OVCAR-8 ovarian
  GI50: 1.69 µM
  TGI: 3.28 µM
SK-MEL-28 melanoma
  GI50: 1.87 µM
  TGI: 3.43 µM
SK-OV-3 ovarian
  GI50: 12.5 µM
  TGI: 25.2 µM
SN12C renal
  GI50: 1.94 µM
  TGI: 3.61 µM
SR leukemia
  GI50: 1.94 µM
  TGI: 4.95 µM
UACC-62 melanoma
  GI50: 1.8 µM
  TGI: 3.37 µM

## CCCCn1c2c(c3ccccc3c1=O)C(=O)c1ccccc1-2
DU-145 prostate
  TGI: > 100 µM
MALME-3M melanoma
  TGI: > 100 µM
MDA-MB-435
  TGI: > 100 µM
OVCAR-4 ovarian
  TGI: 38.4 µM
OVCAR-8 ovarian
  TGI: > 100 µM
SK-MEL-28 melanoma
  TGI: > 100 µM
SK-OV-3 ovarian
  TGI: > 100 µM
SN12C renal
  TGI: > 100 µM
SR leukemia
  TGI: > 100 µM
UACC-62 melanoma
  TGI: > 100 µM

## COc1cccc(/C=C/C(=O)c2ccc(Cl)cc2Cl)c1OC
DU-145 prostate
  GI50: 11.4 µM
  TGI: 27.5 µM
MALME-3M melanoma
  GI50: 13.8 µM
  TGI: 28.2 µM
MDA-MB-435
  GI50: 5.51 µM
  TGI: 18.7 µM
OVCAR-4 ovarian
  GI50: 11.3 µM
  TGI: 34 µM
OVCAR-8 ovarian
  GI50: 3.73 µM
  TGI: 13.7 µM
SK-MEL-28 melanoma
  GI50: 14.2 µM
  TGI: 27.4 µM
SK-OV-3 ovarian
  GI50: 15.4 µM
  TGI: 28.7 µM
SN12C renal
  GI50: 5.73 µM
  TGI: 19.9 µM
SR leukemia
  GI50: 2.28 µM
  TGI: 9.67 µM
UACC-62 melanoma
  GI50: 10.6 µM
  TGI: 24 µM

## CN1CCN(c2ccc(-c3cnc4c(-c5csc6ccccc56)cnn4c3)cc2)CC1
DU-145 prostate
  GI50: 5.59 µM
  TGI: > 15 µM
MALME-3M melanoma
  GI50: 3.04 µM
  TGI: 7.68 µM
MDA-MB-435
  GI50: 11.7 µM
  TGI: > 15 µM
OVCAR-4 ovarian
  GI50: 11.2 µM
  TGI: > 15 µM
OVCAR-8 ovarian
  GI50: 5.7 µM
  TGI: > 15 µM
SK-MEL-28 melanoma
  GI50: > 15 µM
  TGI: > 15 µM
SK-OV-3 ovarian
  GI50: > 15 µM
  TGI: > 15 µM
SN12C renal
  GI50: 14.8 µM
  TGI: > 15 µM
SR leukemia
  GI50: 3.03 µM
  TGI: > 15 µM
UACC-62 melanoma
  GI50: > 15 µM
  TGI: > 15 µM

## Cc1cc(O)c2c(c1)C(=O)c1cc(O)cc(O)c1C2=O
DU-145 prostate
  GI50: 46.2 µM
  TGI: > 100 µM
MALME-3M melanoma
  TGI: 50.6 µM
MDA-MB-435
  GI50: 18.1 µM
  TGI: 62.5 µM
OVCAR-4 ovarian
  TGI: 98.8 µM
OVCAR-8 ovarian
  GI50: 34.3 µM
  TGI: > 100 µM
SK-MEL-28 melanoma
  TGI: > 82.9 µM
SK-OV-3 ovarian
  TGI: > 91.9 µM
SN12C renal
  TGI: > 78.9 µM
SR leukemia
  TGI: 68 µM
UACC-62 melanoma
  GI50: 11.2 µM
  TGI: 38.1 µM

## N#CC1C(=N)Cc2ccccc2-c2ccccc21 (stereo not given)
DU-145 prostate
  GI50: 6.92 µM
  TGI: 49.7 µM
MALME-3M melanoma
  GI50: 4.2 µM
  TGI: 27.4 µM
MDA-MB-435
  GI50: 1.2 µM
  TGI: 3.57 µM
OVCAR-4 ovarian
  GI50: 18 µM
  TGI: > 100 µM
OVCAR-8 ovarian
  GI50: 5.81 µM
  TGI: 41.1 µM
SK-MEL-28 melanoma
  GI50: 6.36 µM
  TGI: 30.3 µM
SK-OV-3 ovarian
  GI50: 4.92 µM
  TGI: 41.2 µM
SN12C renal
  GI50: 5.55 µM
  TGI: 38.8 µM
SR leukemia
  GI50: 3.31 µM
  TGI: 20.7 µM
UACC-62 melanoma
  GI50: 3.83 µM
  TGI: 17.1 µM

## O=C1C=CC(=O)C1(Br)Br
DU-145 prostate
  TGI: 39 µM
MALME-3M melanoma
  TGI: 41.5 µM
MDA-MB-435
  TGI: 29.8 µM
OVCAR-4 ovarian
  TGI: 33.2 µM
OVCAR-8 ovarian
  TGI: 24.1 µM
SK-MEL-28 melanoma
  TGI: 21.8 µM
SK-OV-3 ovarian
  TGI: 43.2 µM
SN12C renal
  TGI: 21.4 µM
SR leukemia
  TGI: 29.5 µM
UACC-62 melanoma
  TGI: 25.3 µM

## NCCNCC(O)CO (stereo not given)
DU-145 prostate
  TGI: > 100 µM
MALME-3M melanoma
  TGI: > 100 µM
MDA-MB-435
  TGI: > 100 µM
OVCAR-4 ovarian
  TGI: > 100 µM
OVCAR-8 ovarian
  TGI: > 100 µM
SK-MEL-28 melanoma
  TGI: > 100 µM
SK-OV-3 ovarian
  TGI: > 100 µM
SN12C renal
  TGI: > 100 µM
SR leukemia
  TGI: > 100 µM
UACC-62 melanoma
  TGI: > 100 µM

## COc1cc2cc(Oc3ccc(NC(=O)Nc4ccccc4)cc3)c(C)nc2cc1OCCN1CCCCC1
DU-145 prostate
  GI50: 5.92 µM
  TGI: 11.4 µM
MALME-3M melanoma
  GI50: 5.96 µM
  TGI: 10.9 µM
MDA-MB-435
  GI50: 5.55 µM
  TGI: 10.1 µM
OVCAR-4 ovarian
  GI50: 6.96 µM
  TGI: 18.2 µM
OVCAR-8 ovarian
  GI50: 6.26 µM
  TGI: 15.3 µM
SK-MEL-28 melanoma
  GI50: 5.41 µM
  TGI: 9.92 µM
SK-OV-3 ovarian
  GI50: 7.8 µM
  TGI: 16.6 µM
SN12C renal
  GI50: 5.15 µM
  TGI: 10.2 µM
SR leukemia
  GI50: 0.934 µM
  TGI: 2.66 µM
UACC-62 melanoma
  GI50: 5.89 µM
  TGI: 11 µM
